Literature values as cited in US11160791B2, “Dexmedetomidine injection premix formulation in ready to use (RTU) bags” (Medefil, Inc., priority 2018, dated 2021).

drug loss with a buffer (plastic containers, buffer system in the formulation, same prior patents): ~10%
dexmedetomidine loss when sodium chloride is used (plastic containers, even with buffers present, U.S. Pat. No. 9,649,296): at least 10%
loss of the dexmedetomidine from the liquid composition (plastic materials, U.S. Pat. Nos. 8,242,158, 8,648,106, 8,436,033, 8,338,470): up to 20%
SMILES: Cc1cccc([C@H](C)c2cnc[nH]2)c1C [dexmedetomidine]
